# Reference: US11427588B2, “Compositions and methods for treating neurodegenerative diseases and cardiomyopathy” (THE REGENTS OF THE UNIVERSITY OF CALIFORNIA, priority 2013, dated 2022)
# “Also recorded” adds a separate entry of the source.
# Experiments:
# [1] = tested on: SH-SY5Y cells with PINK1-silencing shRNA; experiment: H2O2 induced apoptosis, Annexin V / PI FACS assay, PINK1-silencing shRNA; type: cell-based, human; conditions: PINK1-silencing shRNA lentivirus; 50 μM 96 hours, 400 μM H2O2
# Procedure: Apoptosis assays and PINK1 shRNA: SH-SY5Y cells (ATCC) were cultured in 1:1 mix of F12K and DMEM supplemented with 20% FBS. PINK1 shRNA lentivirus were produced using a pLKO.1 based shRNA (Sigma) by contransfection with Δ8.9 and pMGD2 vectors in HEK293T cells. SH-SY5Y cells were infected with lentivirus followed by selection with puromycin ([…]). The indicated cells were plated in 6-well plates at about 500,000 cells/well, pretreated with 50 μM of the indicated drug or DMSO for 96 hours followed by 400 μM H2O2 treatment. Subsequently, cells were stained with Annexin V-FITC and PI and analyzed (FACS Diva) on a FACS LSRII Cytometer ([…]) Apoptosis was calculated as the difference between H2O2 treated samples and the respective control.
# Overexpression of PINK1 in neuronal cells (e.g. dopaminergic (DA)) promotes survival in response to oxidative stress and other mitochondrial toxins^7. Before testing the effects of kinetin on apoptosis, we treated DA neurons with 50 μM of either kinetin or adenine and measured cell density after 10 days. […] SH-SY5Y cells were treated with 50 μM kinetin, adenine or DMSO for 96 hours, followed by 400 μM H2O2 treatment for additional 24 hours. Using a cytometry-based FACS assay involving cellular annexin V and propidium iodide staining, we determined the percentage of apoptotic cells after treatment with DMSO, adenine or kinetin.
# rat hippocampal neurons = experiment: Mitochondrial motility assay in axons; type: cell-based; conditions: 50 μM
# From the text: Mitochondrial motility assay: Primary hippocampal neuronal cultures were co-transfected with mitochondrial targeted GFP (mitoGFP) and mCherry-tagged synaptophysin (mCherrySynaptophysin) to allow for the live identification of mitochondria in axons.
# To test if kinetin decreases motility we examined the mobility of axonal mitochondria in hippocampal neurons. Primary hippocampal neuronal cultures were co-transfected with mitoGFP and mCherry-tagged Synaptophysin (mCherrySynaptophysin) to allow for the live identification of mitochondria in axons. […] To test the PINK1 dependency of this process, we treated control mouse C57 (PINK1 wildtype) and PINK1 knockout derived hippocampal neurons with kinetin or 9MK and imaged their mitochondria.
# HeLa cells = experiment: Parkin recruitment to depolarized mitochondria in HeLa cells, PINK1 form not stated; type: cell-based
# Procedure: Parkin phosphorylation and mitochondrial translocation assay: HeLa cells were grown in DMEM supplemented with 10% FBS. Log phase cells were plated in 24 well plates with glass coverslips (Mattek) pretreated with fibronectin. Cells were pretreated with 50 μM of the indicated compound, followed by transfection with MitoGFP, mCherry Parkin, and full length PINK1FLAG3 in a 1:4:2 ratio using Fugene 6 (Promega). Fields of cells were selected by expression of MitoGFP (6 fields/well-3 wells/condition) and imaged at five-minute intervals following depolarization with 5 μM CCCP. Quantification was performed according to published protocols^3 and by creation of a Matlab based script.
# Our ability to enhance PINK1 activity in-vitro using KTP led us to investigate means by which to achieve enhanced activity in cells expressing PINK1. […] We treated cells with either kinetin or adenine (FIG. 2A) and measured Parkin localization following mitochondrial depolarization with CCCP (FIG. 2B). HeLa cells, which have low levels of endogenous PINK1 and PARKIN, were transfected with wildtype or PINK1^G309D, mCherryParkin, and mitoGFP. After 48 hours of incubation with 25 μM adenine, kinetin or equivalent DMSO, we imaged CCCP-mediated depolarization of mitochondria (FIGS. 2C, 2D) and calculated the percentage of GFP labelled mitochondria with mCherryParkin associated (FIG. 2E). […]
compound,measurement,setting,value
c1coc(CNc2ncnc3[nH]cnc23)c1 [kinetin],total amount of apoptotic cells,[1],no kinetin effect
same,mitochondrial movement / motility,rat hippocampal neurons; 48 hours pre-treatment,potently and specifically inhibited
same,velocity of mitochondria that remain in motion,"rat hippocampal neurons; 48 hours, retrograde direction",slows; also recorded: decrease in the velocity of mitochondria in the retrograde direction
same,Parkin recruitment to CCCP depolarized mitochondria,HeLa cells,accelerates
